Usually pIC50 stands for the IC50 on a negative log10 scale, so that one unit is a factor of ten.

Structures are written as SMILES. pIC50: −log10 of the molar value. Where only a bound is given, the exact number is not on record here.

For one test, the target named is T1, human Nav1.3 channels (Homo sapiens, UniProt Q9NY46).
T1 construct: expressed in transfected cells; host or cells: HEK293
Briefly: FRET assay, human Nav1.3 (EFS on FDSS). It is filed as cell-based. Conditions: HEK293 cells expressing human Nav1.3, read-out: IC50 against Nav1.3. The procedure:
The inhibitory activities of compounds against voltage gated sodium channels are determined by methodology well known in the art.
The ability of the aryl substituted carboxamide derivatives of the formula (I) to inhibit the NaV1.3, Nav1.7 and Nav1.5 channels is measured by Fluorescence Resonance Energy Transfer (FRET) assay and electrophysiology assay described below.
This screen is used to determine the effects of compounds on human Nav1.3, human Nav1.7, and human Nav1.5 channels, utilising electrical field stimulation (EFS) system in 96-well plate format on FDSS (Hamamatsu Photonics) platform. The change of membrane potential is monitored with FRET dye pair, oxonol (DiSBAC2(3)) and coumarin (CC2-DMPE).
Each HEK293 cells expressing human Nav1.3 channels and HEK293 cells expressing human Nav1.5 channels are grown in T225 flasks, in a 5% CO2 humidified incubator to about 80% confluence. Media composition consists of Dulbecco's Modified Eagle Medium (high glucose), 10% FCS, 100 units/mL Penicillin, 100 microgram/mL Streptomycin and 500 microgram/mL Geneticine.
Protocol: • Seed each cell lines (1×10^5 cells/well) into poly-D-lysine coated 96-well plates prior to experimentation. • Incubate at 37° C. in 5% CO2 for 24 hours. • Wash each well with assay buffer (140 mM NaCl, 4.5 mM KCl, 10 mM D-Glucose, 2 mM CaCl2, 1 mM MgCl2, 10 mM HEPES, pH 7.4 adjusted with NaOH) twice. • Add 1st loading solution containing 10 microM CC2-DMPE and 0.06% Pluronic F-127 in assay buffer. • Incubate the plate at room temperature in dark for 1 hour. • Remove 1st loading solution and added 2nd loading solution containing 15 microM DiSBAC2(3), 0.555 mM VABSC-1 and 0.004% Pluronic F-127 in assay buffer. • Place the plate under the dark at room temperature for 25 minutes. • Add compound solutions into the assay plate. • Set the assay plate in FDSS and placed an EFS device on the plate. • Measure EFS-induced fluorescent response by FDSS.
The data are analyzed and reported as normalized ratios of intensities measured at […]. The process of calculating these ratios is performed as follows:
This analysis is performed using a computerized specific program designed for FDSS generated data. Fluorescence ratio values are plotted using XLfit to determine an IC50 value for each compound.

The target in another test is T2, human Nav1.7 channels (Homo sapiens, UniProt Q15858).
T2 construct: expressed in transfected cells; host or cells: CHO
T2 sequence (Q15858 whole entry): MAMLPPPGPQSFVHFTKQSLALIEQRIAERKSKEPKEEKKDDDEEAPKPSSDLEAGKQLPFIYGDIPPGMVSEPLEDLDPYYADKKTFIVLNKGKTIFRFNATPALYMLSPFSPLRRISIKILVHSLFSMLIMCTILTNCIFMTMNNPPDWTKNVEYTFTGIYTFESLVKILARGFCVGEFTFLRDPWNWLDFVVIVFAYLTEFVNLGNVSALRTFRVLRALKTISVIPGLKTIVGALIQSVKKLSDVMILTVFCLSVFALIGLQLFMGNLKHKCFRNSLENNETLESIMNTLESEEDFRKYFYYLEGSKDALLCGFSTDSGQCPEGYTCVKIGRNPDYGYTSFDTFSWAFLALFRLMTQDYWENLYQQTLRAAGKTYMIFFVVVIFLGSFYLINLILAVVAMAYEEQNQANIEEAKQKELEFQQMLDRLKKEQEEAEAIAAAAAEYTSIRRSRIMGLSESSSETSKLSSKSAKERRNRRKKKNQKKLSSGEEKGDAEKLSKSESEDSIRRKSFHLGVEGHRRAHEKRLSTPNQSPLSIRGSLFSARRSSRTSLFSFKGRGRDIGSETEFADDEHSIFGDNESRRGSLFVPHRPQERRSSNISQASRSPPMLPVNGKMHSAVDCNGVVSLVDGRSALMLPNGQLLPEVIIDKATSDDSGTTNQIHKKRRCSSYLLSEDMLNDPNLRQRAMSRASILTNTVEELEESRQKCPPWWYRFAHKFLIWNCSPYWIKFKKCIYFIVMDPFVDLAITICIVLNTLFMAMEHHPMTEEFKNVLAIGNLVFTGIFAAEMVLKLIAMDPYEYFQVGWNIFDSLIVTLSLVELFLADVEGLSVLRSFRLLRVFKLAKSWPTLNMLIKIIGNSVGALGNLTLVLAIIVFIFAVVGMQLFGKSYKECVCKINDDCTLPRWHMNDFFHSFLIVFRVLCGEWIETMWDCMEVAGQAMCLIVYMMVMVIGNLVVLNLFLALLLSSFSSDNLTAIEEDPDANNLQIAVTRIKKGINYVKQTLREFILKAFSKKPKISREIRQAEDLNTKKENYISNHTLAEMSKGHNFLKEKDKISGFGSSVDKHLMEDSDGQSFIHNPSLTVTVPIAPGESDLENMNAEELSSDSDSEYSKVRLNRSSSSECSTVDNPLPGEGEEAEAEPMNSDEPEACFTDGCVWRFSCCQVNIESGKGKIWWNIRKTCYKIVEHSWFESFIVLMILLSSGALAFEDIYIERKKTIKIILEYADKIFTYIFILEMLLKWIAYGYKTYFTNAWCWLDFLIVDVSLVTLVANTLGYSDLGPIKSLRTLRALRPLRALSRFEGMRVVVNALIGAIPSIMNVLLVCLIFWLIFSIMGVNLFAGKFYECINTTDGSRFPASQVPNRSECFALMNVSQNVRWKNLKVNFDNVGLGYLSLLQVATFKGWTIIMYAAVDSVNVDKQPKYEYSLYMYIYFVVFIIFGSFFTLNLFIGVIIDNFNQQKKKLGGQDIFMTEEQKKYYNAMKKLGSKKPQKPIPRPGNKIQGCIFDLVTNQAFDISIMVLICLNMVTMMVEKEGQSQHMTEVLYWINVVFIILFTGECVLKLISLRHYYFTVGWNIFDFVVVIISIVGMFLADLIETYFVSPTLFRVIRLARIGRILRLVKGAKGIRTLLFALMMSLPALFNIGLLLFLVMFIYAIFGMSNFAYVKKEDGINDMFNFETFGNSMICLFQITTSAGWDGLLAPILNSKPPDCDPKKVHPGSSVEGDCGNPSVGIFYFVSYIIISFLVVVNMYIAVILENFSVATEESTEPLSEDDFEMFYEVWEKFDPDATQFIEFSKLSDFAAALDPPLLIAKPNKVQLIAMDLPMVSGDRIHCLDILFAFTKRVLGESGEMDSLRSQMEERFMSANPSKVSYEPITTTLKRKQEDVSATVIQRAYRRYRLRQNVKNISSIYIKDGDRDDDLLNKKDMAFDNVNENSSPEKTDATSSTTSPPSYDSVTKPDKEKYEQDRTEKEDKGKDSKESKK
As to the kind of experiment: FRET assay, human Nav1.7 (EFS on FDSS). It is filed as cell-based. As to conditions: CHO cells expressing human Nav1.7, read-out: IC50 against Nav1.7. The method, boiled down: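 IC50 was derived from normalized 440 nm fluorescence ratios of the EFS-evoked membrane-potential response read on FDSS. Recombinant CHO cells were sequentially dye-loaded with coumarin/oxonol FRET pair at room temperature in pH 7.4 buffer before compound addition.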

T1 sequence (Q9NY46 whole entry): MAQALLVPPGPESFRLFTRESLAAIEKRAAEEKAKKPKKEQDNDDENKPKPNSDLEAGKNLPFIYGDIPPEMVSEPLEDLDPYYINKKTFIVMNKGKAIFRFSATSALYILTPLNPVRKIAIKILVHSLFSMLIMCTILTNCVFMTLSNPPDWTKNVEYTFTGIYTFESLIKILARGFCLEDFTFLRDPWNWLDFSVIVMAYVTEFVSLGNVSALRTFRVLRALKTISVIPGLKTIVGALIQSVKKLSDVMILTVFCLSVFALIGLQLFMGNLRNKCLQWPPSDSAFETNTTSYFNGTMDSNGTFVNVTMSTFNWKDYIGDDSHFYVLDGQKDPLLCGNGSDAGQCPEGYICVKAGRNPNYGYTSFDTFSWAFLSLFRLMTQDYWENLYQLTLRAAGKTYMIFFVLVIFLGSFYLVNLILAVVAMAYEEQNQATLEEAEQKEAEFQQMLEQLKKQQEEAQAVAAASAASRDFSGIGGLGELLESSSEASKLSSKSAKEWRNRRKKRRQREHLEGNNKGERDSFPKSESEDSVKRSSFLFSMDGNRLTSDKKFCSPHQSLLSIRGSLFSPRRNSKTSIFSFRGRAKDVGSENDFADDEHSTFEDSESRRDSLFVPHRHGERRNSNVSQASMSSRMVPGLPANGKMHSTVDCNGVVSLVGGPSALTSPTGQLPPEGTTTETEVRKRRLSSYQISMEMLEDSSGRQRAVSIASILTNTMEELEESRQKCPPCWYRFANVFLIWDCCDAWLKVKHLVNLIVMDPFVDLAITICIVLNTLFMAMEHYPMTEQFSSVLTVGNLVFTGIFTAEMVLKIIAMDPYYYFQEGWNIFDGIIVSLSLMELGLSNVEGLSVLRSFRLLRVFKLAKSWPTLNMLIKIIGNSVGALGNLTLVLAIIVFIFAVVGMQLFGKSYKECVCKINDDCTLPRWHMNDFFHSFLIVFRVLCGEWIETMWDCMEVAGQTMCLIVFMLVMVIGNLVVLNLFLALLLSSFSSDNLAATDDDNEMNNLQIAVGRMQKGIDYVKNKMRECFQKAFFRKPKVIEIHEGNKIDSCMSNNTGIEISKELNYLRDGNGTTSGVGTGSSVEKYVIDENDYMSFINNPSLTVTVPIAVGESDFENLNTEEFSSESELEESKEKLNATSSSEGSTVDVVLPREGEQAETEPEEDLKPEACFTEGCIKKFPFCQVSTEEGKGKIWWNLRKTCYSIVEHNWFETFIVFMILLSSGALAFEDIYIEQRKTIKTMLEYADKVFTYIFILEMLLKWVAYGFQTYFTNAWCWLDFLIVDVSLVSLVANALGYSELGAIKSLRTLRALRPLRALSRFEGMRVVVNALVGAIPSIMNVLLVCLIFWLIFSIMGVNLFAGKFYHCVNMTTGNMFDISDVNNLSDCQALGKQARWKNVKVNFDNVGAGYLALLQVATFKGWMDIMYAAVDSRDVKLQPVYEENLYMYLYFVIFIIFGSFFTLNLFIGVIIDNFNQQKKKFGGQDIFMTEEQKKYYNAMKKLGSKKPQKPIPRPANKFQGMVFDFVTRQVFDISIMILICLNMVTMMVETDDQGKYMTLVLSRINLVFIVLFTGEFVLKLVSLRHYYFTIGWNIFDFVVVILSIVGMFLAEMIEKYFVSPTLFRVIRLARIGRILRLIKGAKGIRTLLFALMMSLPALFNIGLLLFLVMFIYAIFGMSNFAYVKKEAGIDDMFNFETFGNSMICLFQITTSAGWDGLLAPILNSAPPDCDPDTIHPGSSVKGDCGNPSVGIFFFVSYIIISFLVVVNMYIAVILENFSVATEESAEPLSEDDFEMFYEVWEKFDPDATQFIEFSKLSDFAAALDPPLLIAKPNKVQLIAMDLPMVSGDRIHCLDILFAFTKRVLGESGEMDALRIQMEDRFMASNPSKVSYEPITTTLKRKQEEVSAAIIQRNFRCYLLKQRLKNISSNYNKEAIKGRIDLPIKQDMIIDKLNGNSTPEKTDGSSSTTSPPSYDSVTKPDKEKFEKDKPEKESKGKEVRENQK

Consider `COCCNc1nc(C)cc(C(=O)NC(C)c2cnc(OCC(F)(F)F)c(C)c2)n1` (single isomer, unassigned) [Example 475, 2-((2-methoxyethyl)amino)-6-methyl-N-(1-(5-methyl-6-(2,2,2-trifluoroethoxy)pyridin-3-yl)ethyl)pyrimidine-4-carboxamide], for which the pIC50 at human Nav1.3 channels was over 6.00.
Same read-out and setting: next, `Cc1cc(C(C)NC(=O)c2ccc3cccc(O)c3n2)cnc1OCC(F)(F)F` (single isomer, unassigned) [Example 535, 8-hydroxy-N-(1-(5-methyl-6-(2,2,2-trifluoroethoxy)pyridin-3-yl)ethyl)quinoline-2-carboxamide]: over 6.00; `C=C(C)C(=O)Nc1cc(C(=O)NC(C)c2ccc(OCC(F)(F)F)nc2)cc(C)n1` (single isomer, unassigned) [Example 571, 2-methacrylamido-6-methyl-N-(1-(6-(2,2,2-trifluoroethoxy)pyridin-3-yl)ethyl)isonicotinamide]: over 6.00; `CC(C)C(=O)Nc1cc(C(=O)NC(C)c2ccc(OCC(F)(F)C(F)(F)F)nc2)ccn1` (single isomer, unassigned) [Example 690, 2-isobutyramido-N-(1-(6-(2,2,3,3,3-pentafluoropropoxy)pyridin-3-yl)ethyl)isonicotinamide]: over 6.00.
Consider `CCC(=O)Nc1cc(C(=O)NC(C)c2ccc(OCC(F)(F)C(F)(F)F)nc2)cc(C)n1` (single isomer, unassigned) [Example 692, 2-methyl-N-(1-(6-(2,2,3,3,3-pentafluoropropoxy)pyridin-3-yl)ethyl)-6-propionamidoisonicotinamide], for which the negative-log IC50 (pIC50) on human Nav1.3 channels is over 6.00.
Same read-out and setting: under `CC(NC(=O)c1ccnc(NC(=O)C2CC2)n1)c1ccc(OCC(F)(F)C(F)(F)F)nc1` (single isomer, unassigned) [Example 694, 2-(cyclopropanecarboxamido)-N-(1-(6-(2,2,3,3,3-pentafluoropropoxy)pyridin-3-yl)ethyl)pyrimidine-4-carboxamide] stands over 6.00; under `Cc1cc(C(=O)NC(C)c2ccc(OCC(F)F)c(Cl)c2)nc(NC(=O)C2CC2)n1` (single isomer, unassigned) [Example 984, N-(1-(3-chloro-4-(2,2-difluoroethoxy)phenyl)ethyl)-2-(cyclopropanecarboxamido)-6-methylpyrimidine-4-carboxamide], over 6.00.
For the compound `CC(=O)Nc1cc(C(=O)NCc2cnc(OCC(F)(F)F)c(Cl)c2)ccn1` [Example 93, 2-acetamido-N-((5-chloro-6-(2,2,2-trifluoroethoxy)pyridin-3-yl)methyl)isonicotinamide], the negative logarithm of the IC50 (pIC50) at human Nav1.3 channels is over 6.00.
Same read-out and setting: under `O=C(NCc1cnc(OCC(F)(F)F)c(Cl)c1)c1ccnc(NC(=O)C2CC2)c1` [Example 95, N-((5-chloro-6-(2,2,2-trifluoroethoxy)pyridin-3-yl)methyl)-2-(cyclopropanecarboxamido)isonicotinamide] stands over 6.00.
Still for that read-out and setting: under `CCC(=O)Nc1cc(C(=O)NCc2ccc(OCC(F)(F)F)nc2)ccn1` [Example 151, 2-propionamido-N-((6-(2,2,2-trifluoroethoxy)pyridin-3-yl)methyl)isonicotinamide] stands over 6.00.
On to `CCC(=O)Nc1cc(C(=O)NCc2cccc(OCC(F)(F)F)n2)ccn1` [Example 464, 2-propionamido-N-((6-(2,2,2-trifluoroethoxy)pyridin-2-yl)methyl)isonicotinamide], for which the negative logarithm of the IC50 (pIC50) on human Nav1.3 channels is over 6.00.
The same measure, in the same setting: next, `O=C(NCc1cccc(OCC(F)(F)F)n1)c1ccnc(NC(=O)C2CC2)c1` [Example 465, 2-(cyclopropanecarboxamido)-N-((6-(2,2,2-trifluoroethoxy)pyridin-2-yl)methyl)isonicotinamide]: over 6.00; `CC(=O)Nc1cc(C(=O)NCc2cccc(OCC(F)(F)F)n2)cc(C)n1` [Example 466, 2-acetamido-6-methyl-N-((6-(2,2,2-trifluoroethoxy)pyridin-2-yl)methyl)isonicotinamide]: over 6.00; `CC(C)C(=O)Nc1cc(C(=O)NCc2cccc(OCC(F)(F)F)n2)ccn1` [Example 468, 2-isobutyramido-N-((6-(2,2,2-trifluoroethoxy)pyridin-2-yl)methyl)isonicotinamide]: over 6.00.
On the same count and under the same terms, next, `CCCC(=O)Nc1cc(C(=O)NCc2cccc(OCC(F)(F)F)n2)ccn1` [Example 469, 2-butyramido-N-((6-(2,2,2-trifluoroethoxy)pyridin-2-yl)methyl)isonicotinamide]: over 6.00; `Cc1cc(C(=O)NCc2cccc(OCC(F)(F)F)n2)cc(NC(=O)C(C)C)n1` [Example 496, 2-isobutyramido-6-methyl-N-((6-(2,2,2-trifluoroethoxy)pyridin-2-yl)methyl)isonicotinamide]: over 6.00; `CCNC(=O)c1cc(C(=O)NCc2ccc(OCC(F)(F)F)nc2OC)cc(C)n1` [Example 508, N2-ethyl-N4-((2-methoxy-6-(2,2,2-trifluoroethoxy)pyridin-3-yl)methyl)-6-methylpyridine-2,4-dicarboxamide]: over 6.00.
For the compound `Cc1cc(C(=O)NCc2cnc(OCC(F)(F)F)cc2C)cc(NC(=O)C(C)C)n1` [Example 516, 2-isobutyramido-6-methyl-N-((4-methyl-6-(2,2,2-trifluoroethoxy)pyridin-3-yl)methyl)isonicotinamide], at human Nav1.3 channels, the pIC50 was over 6.00.
`Cc1ccc(OCC(F)(F)F)nc1CNC(=O)c1ccnc(NC(=O)C(C)C)c1` [Example 566, 2-isobutyramido-N-((3-methyl-6-(2,2,2-trifluoroethoxy)pyridin-2-yl)methyl)isonicotinamide]: the pIC50 on human Nav1.3 channels was over 6.00.
Still for that read-out and setting: next, `Cc1ccc(OCC(F)(F)F)nc1CNC(=O)c1ccnc(NC(=O)C2CC2)c1` [Example 568, 2-(cyclopropanecarboxamido)-N-((3-methyl-6-(2,2,2-trifluoroethoxy)pyridin-2-yl)methyl)isonicotinamide]: over 6.00; `CCC(=O)Nc1cc(C(=O)NCc2cc(C(F)(F)F)ccc2F)ccn1` [Example 572, N-(2-fluoro-5-(trifluoromethyl)benzyl)-2-propionamidoisonicotinamide]: over 6.00.
Turning to `O=C(NCc1cc(C(F)(F)F)ccc1F)c1ccnc(NC(=O)C2CC2)c1` [Example 573, 2-(cyclopropanecarboxamido)-N-(2-fluoro-5-(trifluoromethyl)benzyl)isonicotinamide], the negative-log IC50 (pIC50) at human Nav1.3 channels was over 6.00.
On the same count and under the same terms, next, `CC(=O)Nc1cc(C(=O)NCc2cc(C(F)(F)F)ccc2F)cc(C)n1` [Example 574, 2-acetamido-N-(2-fluoro-5-(trifluoromethyl)benzyl)-6-methylisonicotinamide]: over 6.00.
Same read-out and setting: under `Cc1cc(C(=O)NCc2cc(C(F)(F)F)ccc2F)cc(NC(=O)C(C)C)n1` [Example 575, N-(2-fluoro-5-(trifluoromethyl)benzyl)-2-isobutyramido-6-methylisonicotinamide] stands over 6.00.
On the same count and under the same terms, under `Cc1cc(CNC(=O)c2ccnc(NC(=O)C(C)C)c2)nc(OCC(F)(F)F)c1` [Example 576, 2-isobutyramido-N-((4-methyl-6-(2,2,2-trifluoroethoxy)pyridin-2-yl)methyl)isonicotinamide] stands over 6.00.
In the case of `COc1nc(OCC(F)F)ccc1CNC(=O)c1ccnc(NC(=O)C2CC2)c1` [Example 1153, 2-(cyclopropanecarboxamido)-N-((6-(2,2-difluoroethoxy)-2-methoxypyridin-3-yl)methyl)isonicotinamide], the negative logarithm of the IC50 (pIC50) at human Nav1.7 channels is over 6.00.
`COc1nc(OCC(F)F)ccc1CNC(=O)c1ccnc(NC(=O)C(C)C)c1` [Example 1154, N-((6-(2,2-difluoroethoxy)-2-methoxypyridin-3-yl)methyl)-2-isobutyramidoisonicotinamide]: on human Nav1.7 channels, the pIC50 was over 6.00.
In the case of `COc1nc(OCC(F)F)ccc1CNC(=O)c1cc(C)nc(NC(C)=O)c1` [Example 1156, 2-acetamido-N-((6-(2,2-difluoroethoxy)-2-methoxypyridin-3-yl)methyl)-6-methylisonicotinamide], the pIC50 on human Nav1.7 channels is over 6.00.
The same measure, in the same setting: under `COc1nc(OCC(F)F)ccc1CNC(=O)c1cc(C)nc(NC(=O)C(C)C)c1` [Example 1157, N-((6-(2,2-difluoroethoxy)-2-methoxypyridin-3-yl)methyl)-2-isobutyramido-6-methylisonicotinamide] stands over 6.00.

The record behind these values is patent publication US9302991B2, “Arylamide derivatives as TTX-S blockers” (RaQualia Pharma Inc., priority 2010, dated 2016).
